The assay has as its target HDAC3 (Homo sapiens, UniProt O15379). The assay is described as follows: preliminary enzyme kinetics of HDAC3 inhibition. The format is biochemical.

Each structure is given as a SMILES string.

The record followed here is article PMC2902275 (Cancer prevention research (Philadelphia, Pa.), 2009).

Sequence of HDAC3 (O15379 whole entry): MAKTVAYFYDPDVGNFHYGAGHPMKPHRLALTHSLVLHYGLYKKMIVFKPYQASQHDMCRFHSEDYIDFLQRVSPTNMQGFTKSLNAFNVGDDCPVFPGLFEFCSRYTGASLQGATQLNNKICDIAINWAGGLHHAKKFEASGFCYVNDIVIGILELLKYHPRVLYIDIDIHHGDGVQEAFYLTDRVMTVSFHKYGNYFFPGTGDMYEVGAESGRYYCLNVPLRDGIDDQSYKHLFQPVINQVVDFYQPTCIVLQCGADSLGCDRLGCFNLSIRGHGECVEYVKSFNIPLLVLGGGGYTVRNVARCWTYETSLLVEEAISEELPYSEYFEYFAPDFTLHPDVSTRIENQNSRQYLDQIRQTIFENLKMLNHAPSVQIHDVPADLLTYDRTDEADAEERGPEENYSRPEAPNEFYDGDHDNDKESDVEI

Broadly, the Ki is a dissociation constant, usually derived from enzyme kinetics or from competition with a known ligand. A higher Ki goes with a looser hold on the target. As for `C[Se]CCC(=O)C(=O)O` [KMSB, α-keto-γ-methylselenobutyrate], the Ki is ~30 µM.
